From the supplement of paper PMC10307832

Tests used:
Experiment in all cases: relative viability (nuclei count vs DMSO), 5 days (fraction); higher = more cells survive
Sulindac + AZD7762 = compound: CC1=C(CC(=O)O)c2cc(F)ccc2/C1=C\c1ccc([S+](C)[O-])cc1 [Sulindac] + NC(=O)Nc1cc(-c2cccc(F)c2)sc1C(=O)N[C@H]1CCCNC1 [AZD7762] (partner 0.2 µM)
In short: (§1)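 Relative viability equals treated-well nuclei counts divided by vehicle-well nuclei counts. Counts came from 4× images of lung cancer cell lines grown in 1536-well plates for 5 days after pin-tool dosing on the day after seeding. Dosing used one drug alone or a fixed anchor-drug dose plus five library-drug doses (not always all listed) in √10 steps, and values are medians of duplicate plates.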

Sulindac + Dasatinib = compound: CC1=C(CC(=O)O)c2cc(F)ccc2/C1=C\c1ccc([S+](C)[O-])cc1 [Sulindac] + Cc1nc(Nc2ncc(C(=O)Nc3c(C)cccc3Cl)s2)cc(N2CCN(CCO)CC2)n1 [Dasatinib] (partner 0.075 µM)
In short: as §1

[1] = compound: O=c1[nH]cc(F)c(=O)[nH]1 [5-Fluorouracil] + O=C(c1cc(Cc2n[nH]c(=O)c3ccccc23)ccc1F)N1CCN(C(=O)C2CC2)CC1 [Olaparib] (partner 8 µM)
In short: as §1

Staurosporine + AZD7762 = compound: CN[C@@H]1C[C@H]2O[C@@](C)([C@@H]1OC)n1c3ccccc3c3c4c(c5c6ccccc6n2c5c31)C(=O)NC4 [Staurosporine] + NC(=O)Nc1cc(-c2cccc(F)c2)sc1C(=O)N[C@H]1CCCNC1 [AZD7762] (partner 0.2 µM)
In short: as §1

Cell Line	relative viability (Sulindac + AZD7762; first compound 0.08 µM)	relative viability (Sulindac + AZD7762; first compound 0.253 µM)	relative viability (Sulindac + AZD7762; first compound 0.8 µM)	relative viability (Sulindac + AZD7762; first compound 2.53 µM)	relative viability (Sulindac + AZD7762; first compound 8 µM)	relative viability (Sulindac + Dasatinib; first compound 0.08 µM)	relative viability (Sulindac + Dasatinib; first compound 0.253 µM)	relative viability (Sulindac + Dasatinib; first compound 0.8 µM)	relative viability (Sulindac + Dasatinib; first compound 2.53 µM)	relative viability (Sulindac + Dasatinib; first compound 8 µM)	relative viability ([1]; first compound 0.02 µM)	relative viability ([1]; first compound 0.2 µM)	relative viability ([1]; first compound 0.6325 µM)	relative viability ([1]; first compound 2 µM)	relative viability (Staurosporine + AZD7762; first compound 0.005 µM)	relative viability (Staurosporine + AZD7762; first compound 0.01581 µM)	relative viability (Staurosporine + AZD7762; first compound 0.05 µM)	relative viability (Staurosporine + AZD7762; first compound 0.1581 µM)	relative viability (Staurosporine + AZD7762; first compound 0.5 µM)
NCI-H2085	0.904	0.988	0.834	0.945	0.95	0.209	0.219	0.27	0.238	0.213	0.743	0.784	0.693	0.677	0.751	0.42	0.47	0.245	0.276
PC-3 [JPC-3]	0.855	0.805	0.697	0.715	1.06	0.878	1.05	0.772	1.02	1.04	1.17	1.14	1.09	0.912	0.829	0.472	0.357	0.327	0.332
NCI-H838	1.05	0.976	0.843	0.886	1.04	0.275	0.334	0.311	0.281	0.34	0.801	0.691	0.45	0.296	0.776	0.644	0.643	0.693	0.675
NCI-H1755	0.424	0.429	0.628	0.456	0.498	0.52	0.478	0.36	0.442	0.495	0.817	0.665	0.374	0.319	0.318	0.228	0.214	0.224	0.224
NCI-H650	1.03	0.899	0.766	0.914	0.978	0.52	0.462	0.469	0.466	0.47	0.282	0.323	0.26	0.293	0.432	0.304	0.273	0.227	0.306
NCI-H1944	0.519	0.382	0.526	0.512	0.551	0.207	0.202	0.18	0.2	0.269	0.389	0.379	0.298	0.187	0.349	0.25	0.275	0.177	0.192
LK-2	0.456	0.469	0.318	0.465	0.414	0.325	0.215			0.313	0.589	0.814	0.529	0.428	0.571	0.448	0.394	0.0558	0.0592
HCC-15	1.11	1.44	0.883	1.23	1.16	0.674	0.614	0.544	0.573	0.656	0.741	0.707	0.521	0.33	1.28		1.22	0.736	0.302
PC-14	0.377	0.315	0.35	0.284	0.364	0.25	0.293		0.222	0.369	0.277	0.265	0.304	0.179	0.302	0.0766	0.0421	0.0892	0.0415
HOP-62	0.577	0.565	0.556	0.717	0.953	0.696	0.652		0.718	0.646	0.39	0.449	0.405	0.387	0.358	0.128		0.126	0.0794
NCI-H322M	0.469	0.42	0.573	0.575	0.546	0.26	0.244	0.268	0.244	0.275	0.838	0.764	0.618	0.531	0.552	0.456	0.527	0.393	0.425
NCI-H1395	0.387	0.378	0.4	0.401	0.401	0.379	0.406	0.613	0.368	0.485	0.481	0.445	0.557	0.479	0.38	0.305	0.34	0.303	0.302
NCI-H727	0.575	0.643	0.473	0.582	0.616	0.345	0.333		0.394	0.412	0.748	0.821	0.747	0.593	0.622	0.412	0.55	0.466	0.461
NCI-H1734	0.646	0.587	0.519	0.621	0.73	0.514	0.428		0.445	0.5	0.586	0.667	0.53	0.393	0.539	0.242	0.194	0.0987	0.0915
EKVX	0.755	0.902	0.571	0.763	0.809	0.414	0.524		0.479	0.476	0.667	0.277		0.169	0.239	0.119	0.286	0.321	
NCI-H596	1.06	1.16		1.23	1.27	0.563	0.56	0.6	0.666	0.641	0.66	0.694	0.57	0.491	1.08	0.769	0.471	0.28	0.303
LCLC-97TM1	0.274	0.377	0.171		0.232	0.996	0.951	0.637	0.711	0.998	0.334	0.363	0.257	0.232	0.225	0.121	0.169	0.176	0.141

Cell Line	relative viability (Sulindac + AZD7762; first compound 0.08 µM)	relative viability (Sulindac + AZD7762; first compound 0.253 µM)	relative viability (Sulindac + AZD7762; first compound 0.8 µM)	relative viability (Sulindac + AZD7762; first compound 2.53 µM)	relative viability (Sulindac + AZD7762; first compound 8 µM)	relative viability (Sulindac + Dasatinib; first compound 0.08 µM)	relative viability (Sulindac + Dasatinib; first compound 0.253 µM)	relative viability (Sulindac + Dasatinib; first compound 0.8 µM)	relative viability (Sulindac + Dasatinib; first compound 2.53 µM)	relative viability (Sulindac + Dasatinib; first compound 8 µM)	relative viability ([1]; first compound 0.02 µM)	relative viability ([1]; first compound 0.2 µM)	relative viability ([1]; first compound 0.6325 µM)	relative viability ([1]; first compound 2 µM)	relative viability (Staurosporine + AZD7762; first compound 0.005 µM)	relative viability (Staurosporine + AZD7762; first compound 0.01581 µM)	relative viability (Staurosporine + AZD7762; first compound 0.05 µM)	relative viability (Staurosporine + AZD7762; first compound 0.1581 µM)	relative viability (Staurosporine + AZD7762; first compound 0.5 µM)
NCI-H1355	0.842	0.748	0.71	0.765	0.858	0.872	0.756		0.643	0.795	0.716	0.485	0.253	0.225	0.713	0.294	0.237	0.214	0.148
EPLC-272H	0.432		0.53	0.155	0.263	0.424	0.377		0.358	0.332	0.737	0.67	0.32	0.21	0.235	0.145	0.111	0.0612	0.0657
ChaGo-K-1	0.949	0.878	0.803	0.932	0.906	0.597	0.618	0.64	0.587	0.651	0.36	0.393	0.321	0.25	0.912		0.615	0.148	0.135
NCI-H1651	0.516	0.508	0.318	0.492	0.506	0.475	0.539		0.419	0.777	0.172	0.2	0.188	0.175	0.522	0.352	0.295	0.219	0.195
NCI-H460	0.984	0.639	0.812	0.64	0.846	0.616	0.461	0.482	0.489	0.658	0.326	0.347	0.155	0.105	0.656	0.532	0.741	0.0465	0.0251
LOU-NH91	0.781	0.809	0.627	0.742	0.817	0.65	0.53	0.481	0.54	0.573	0.92	0.853	0.74	0.314	0.555	0.341	0.395	0.254	0.247
RERF-LC-KJ	1.41	1.18	0.632	0.993	1.05	1.03	0.973	0.692	0.802	0.838	0.985	0.829	0.878	0.763	1.07	0.804	0.436	0.24	0.177
NCI-H2126	1.12	1.03	0.889	1.01	1.09	0.558	0.585	0.597	0.57	0.671	0.808	0.374	0.329	0.254	0.914	0.622	0.673	0.268	0.27
SW 900	0.538	0.677			0.643		0.582		0.524	0.623	0.751	0.794	0.811	0.522	0.413	0.337	0.31	0.157	0.151
LU99A	0.324	0.467	0.433	0.327	0.404	0.596	0.533	0.509	0.522	0.714	0.307	0.259	0.267	0.226	0.327	0.135	0.205	0.153	0.0961
BEN	0.728	0.727	0.598	0.604	0.776	0.311	0.317	0.314	0.288	0.384	1.01	0.851	0.907	0.913	0.946	0.776	0.761	0.316	0.294
NCI-H1666	0.869	0.878	0.776	0.847	0.945	0.945	0.875	0.716	0.871	0.995	0.861	0.67	0.647	0.625	0.701	0.51	0.524	0.404	0.32
NCI-H1993	0.717	0.854	0.606	0.695	0.854	0.569	0.516	0.543	0.581	0.575	1.15	0.743	0.525	0.445	0.676	0.39	0.407	0.331	0.296
NCI-H2342	0.76	0.495	0.441	0.491	0.5	0.276	0.339	0.287	0.303	0.319	0.419	0.529	0.442	0.39	0.642	0.412	0.373	0.335	0.328
LCLC-103H	0.88	0.799	0.708	0.786	0.91	0.5	0.477	0.376	0.458	0.508	0.801	0.741	0.559	0.46	0.827	0.41	0.334	0.231	0.194
HCC-78	0.614	0.6	0.557	0.599	0.722	0.552	0.313	0.345	0.587	0.401	0.755	0.599	0.331	0.28	0.674	0.463	0.438	0.375	0.326
NCI-H1975	0.868	0.715	0.699	0.695	0.819	0.411	0.315	0.345	0.353	0.375	0.805	0.736	0.356	0.21	0.536	0.402	0.357	0.261	0.182
